The values that follow come from patent US5594024A, “Centrally actig substituted phenylazacycloalkanes” (priority 1995, dated 1997).

Assay [1] deals with T1, D2 receptors (Rattus norvegicus, UniProt P61169).
T1 construct: Preparation of rat striatal membranes for (3H)-spiperone; from tissue; host or cells: rat striatum (striatal membranes)
As to the kind of experiment: D2 antagonist binding ([3H]-spiperone), rat striatum. The method, then:
D2 antagonist binding. Preparation of rat striatal membranes for (3H)-spiperone (specific activity 21-24 Ci/mmol) binding was carried out in a similar manner as described for D1-binding, Hyttel et al., J. Neural. Transm., 68, 171 (1987).
IC50 values were calculated by semi-log plot and linear regression analysis.

The target in assay [2] is T2, 5-HT1A (Rattus norvegicus, UniProt P19327).
T2 construct: the whole brain with the exception of the brainstem and cerebellum was rapidly removed; from tissue
T2 sequence (P19327 1-422): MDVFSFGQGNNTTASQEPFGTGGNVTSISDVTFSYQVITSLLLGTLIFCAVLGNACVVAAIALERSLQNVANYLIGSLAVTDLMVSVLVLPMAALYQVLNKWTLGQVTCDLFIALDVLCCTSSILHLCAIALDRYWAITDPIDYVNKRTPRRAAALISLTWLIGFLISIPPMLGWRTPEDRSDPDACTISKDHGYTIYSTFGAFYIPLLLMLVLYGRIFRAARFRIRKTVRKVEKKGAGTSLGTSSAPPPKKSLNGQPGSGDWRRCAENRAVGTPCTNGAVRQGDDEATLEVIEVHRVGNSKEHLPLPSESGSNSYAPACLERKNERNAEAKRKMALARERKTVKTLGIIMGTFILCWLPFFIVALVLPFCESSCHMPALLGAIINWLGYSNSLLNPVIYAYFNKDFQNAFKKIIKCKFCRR
As to the kind of experiment: 5-HT1A radioligand binding ([3H]-8-OH-DPAT). Set-up: species or system rat (male Sprague-Dawley). To be noted: [3H]-8-OH-DPAT, rat cortex; read-out: in vitro binding IC50, 5HT1A. The method, then: ^b Serotonin 5HT1A ([^3 H]-8OH-DPAT, agonist) rat cortex.
5-HT1A radioligand binding. Male Sprague-Dawley rats (160-225 g) were killed by decapitation and the whole brain with the exception of the brainstem and cerebellum was rapidly removed, weighed and chilled in ice-cold 0.9% NaCl. Each brain was homogenized (Ultra-Turrax, 20 s) in 10 mL ice-cold 50 mM Tris buffer (pH 8.0 at 25° C.) containing 120 mM NaCl, 4 mM CaCl2 and 4 mM MgCl2 and centrifuged at 20,000 g's at 4° C. for 10 minutes. Pellets were resuspended in 10 mL fresh buffer and preincubated for 10 minutes in a 37° C. waterbath and then recentrifuged. Final pellets were homogenized in 100 volumes (w/v) of Tris buffer (as described above) containing 10 μM pargyline. The incubation tubes were kept on ice in triplicates and received 100 μL drug solution in water (or water for total binding) and 1000 μL membrane suspension (corresponds to 10 mg original tissue). The binding experiment was initiated by addition of 100 μL of (3H)-8-OH-DPAT (specific activity 143-158 Ci/mmol) in ascorbic acid (the final incubation concentration was 1 nM (3H)-8-OH-DPAT in 0.1% ascorbic acid). After incubation for 15 minutes at 37° C. the reaction was terminated by separation of the free radioligand from bound by rapid vacuum filtration using a cell harvester equipment (O. M. Teknik, Denmark). The tubes were rinsed with 4 mL and the filters (Whatman GF/F 25 mm) were washed twice with 4 mL ice-cold 0.9% NaCl.
The radioactivity of the filters was measured in a liquid scintillation counter (efficiency 41%) in 5 mL Picofluor®. Specific binding (70-75% of total binding) was defined as the radioactivity displaced by 10 μM 5-HT. IC50 values were calculated by semi-log plot and linear regression analysis.

The test system of assay [3] is habituated rats. Put plainly: Locomotor activity and behavior in habituated rats. Format: in vivo, rat (male Sprague-Dawley). Conditions: 100 μmol/kg sc, habituated rats; for response vs control in vivo at 100 µmol/kg: Rattus norvegicus, 1 h, 60 min, read-out: Motor Activity. The protocol:
(§1) Footnotes Table 3. The rats were habituated to the motility meters 60 min
prior to the activity session.
(§2) Injection volumes were 5 mL/kg.
Locomotor activity was measured in rats which were habituated 60 minutes to the activity meters before drug injection. The activity was measured for the subsequent 60 minutes and expressed as % of controls (means ±SEM, n=4).

Assay [4] has as its system DA receptor. Put plainly: DA metabolism (DOPAC, HVA levels) in habituated rats. Format: in vivo, rat (male Sprague-Dawley). To be noted: Rattus norvegicus, 1 h. The protocol: as §1
The rats were immediately killed after the activity session, striata
and limbic levels of DOPAC and 5HIAA were measured by means of HPLCEC. *p
In the experiments with habituated rats no NSD was administered and the animals were killed one hour after drug administration. […] The levels were expressed as % of controls (DOPAC and 5-HIAA see Table 3). The in vivo brain microdialysis experiments were performed in conscious rats as described by Waters et al., Eur. J. Pharm., 187, 425-34 (1990).
as §2
After the activity session the rats were killed and the brain levels of HVA and DOPAC were measured (data are expressed as means ±SEM).

The mark [5] stands for this setting: read-out: in vitro binding IC50, D2 -spip, [3H]-spiperone, rat striatum.
Setting [6] is: [3H]-spiperone, rat striatum, read-out: in vitro binding IC50, D2 -spip.
The mark [7] stands for this setting: 100 μmol/kg sc, habituated rats, read-out: DOPAC limbic.
Setting [8] is: 100 μmol/kg sc, habituated rats, read-out: DOPAC striatum.

Where two headings read alike, the source gives them in different places.

One may read the IC50 as the concentration at which inhibition is half-maximal.

T1 sequence (P61169 whole entry): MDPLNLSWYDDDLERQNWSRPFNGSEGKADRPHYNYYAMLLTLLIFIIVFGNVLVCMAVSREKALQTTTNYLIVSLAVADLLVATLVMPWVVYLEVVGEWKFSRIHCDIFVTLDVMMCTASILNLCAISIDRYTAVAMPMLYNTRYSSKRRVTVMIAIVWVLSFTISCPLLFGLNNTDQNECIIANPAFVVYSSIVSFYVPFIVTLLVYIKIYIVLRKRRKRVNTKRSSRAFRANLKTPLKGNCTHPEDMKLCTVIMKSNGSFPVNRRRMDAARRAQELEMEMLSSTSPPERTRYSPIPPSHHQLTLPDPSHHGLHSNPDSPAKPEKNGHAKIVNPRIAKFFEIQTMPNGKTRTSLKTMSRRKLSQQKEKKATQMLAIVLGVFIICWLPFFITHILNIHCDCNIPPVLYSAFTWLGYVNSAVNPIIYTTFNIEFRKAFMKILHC

Take `CCCCN1CCC[C@@H](c2cccc(C#N)c2)C1` [Compound S-36, S-3-(3-Cyanophenyl-N-n-butyl)piperidine]: the IC50 in assay [1] (setting [5]) was found to be 3.7 µM; in assay [2] it was 5.6 µM.
As to `CC(C)N1CCC[C@@H](c2cccc(C#N)c2)C1` [Compound S-35, S-3-(3-Cyanophenyl-N-iso-propyl)piperidine], the Behavioral observations result in assay [3] is recorded as “Activation”. Moreover, the IC50 in assay [1] (setting [5]) is 4.3 µM; in assay [2] it was 16 µM. Besides, the response vs control in vivo at 100 µmol/kg in assay [4] (sc, read-out: DOPAC striatum) turned out to be 251 ± 18%.
For the molecule `CCCN1CCCC(c2cccc(C#N)c2)C1` (racemic) [(+)-S-34], the response vs control in vivo at 100 µmol/kg amounted to 207 ± 6% in assay [4] (sc, read-out: DOPAC limbic) and 291 ± 16% in assay [4] (sc, read-out: DOPAC striatum).
Regarding `CCCN1CCCC(c2ccccc2OS(=O)(=O)C(F)(F)F)C1` (racemic) [Racemic-19, 3-((2-(Trifluoromethyl)sulfonyl)oxyphenyl-N-n-propyl)piperidine], in assay [3], the Behavioral observations entry is recorded as “No activation” and the response vs control in vivo at 100 µmol/kg was 101 ± 14%. Moreover, the IC50 in assay [2] came out at 1.4 µM.
On to `O=S(=O)(Oc1cccc([C@@H]2CCCN(CCc3ccccc3)C2)c1)C(F)(F)F` [Compound S-18], for which the results for the half-inhibitory concentration (IC50) in assay [1] and in assay [2] were 0.24 µM and 0.23 µM, respectively.
Turning to `N#Cc1cccc([C@@H]2CCCN(CCc3cccs3)C2)c1` [Compound S-40, S-3-((3-Cyanophenyl)-N-(2-thiopheneethyl))piperidine], the Behavioral observations result in assay [3] is listed as “Activation”. The response vs control in vivo at 100 µmol/kg in assay [3] worked out at 500 ± 92%; in assay [4] (setting [7]), 149 ± 17%; in assay [4] (setting [8]) it was 201 ± 4%. Also, the 50% inhibitory concentration (IC50) stood at 0.89 µM in assay [1] (setting [6]) and 0.4 µM in assay [2].
Regarding `C=CCN1CCC[C@@H](c2cccc(C#N)c2)C1` [Compound S-37, S-3-(3-Cyanophenyl-N-allyl)piperidine], the IC50 in assay [1] (setting [5]) was 8.2 µM; in assay [2], 12 µM. Besides, in assay [4] (sc, read-out: DOPAC limbic), the response vs control in vivo at 100 µmol/kg amounted to 205 ± 17%.
For `CCCN1CCCC(c2ccc(OS(=O)(=O)C(F)(F)F)cc2)C1` (racemic) [Racemic-20, 3-((4-(Trifluoromethyl)sulfonyl)oxyphenyl-N-n-propyl)piperidine], the results for the IC50 in assay [1] (setting [6]) and in assay [2] were 71 µM and 14 µM, respectively.
Regarding `N#Cc1cccc([C@@H]2CCCN(CCc3ccccc3)C2)c1` [Compound S-39, S-3-((3-Cyanophenyl)-N-(2-phenylethyl))piperidine], in assay [3], the Behavioral observations result is recorded as “Activation”. Moreover, the response vs control in vivo at 100 µmol/kg turned out to be 511 ± 69% in assay [3], 169 ± 16% in assay [4] (setting [7]) and 231 ± 14% in assay [4] (setting [8]). Moreover, the half-maximal inhibitory concentration (IC50) in assay [1] (setting [6]) worked out at 0.63 µM; in assay [2] it was 0.15 µM.
As to `CCCN1CCC[C@@H](c2cccc(C(=O)OC)c2)C1` [Compound S-25, S-3-(3-(Methoxycarbonyl)phenyl-N-n-propyl)piperidine], the IC50 in assay [1] (setting [6]) is 16 µM; in assay [2], 2 µM.
As to `CCCN1CCC(c2cccc(OS(=O)(=O)C(F)(F)F)c2)C1` (racemic) [Racemic-21, 3-((3-(Trifluoromethyl)sulfonyl)oxyphenyl-N-n-propyl)pyrrolidine], the Behavioral observations entry in assay [3] is listed as “No activation”. Also, in assay [3], the response vs control in vivo at 100 µmol/kg came out at 93 ± 18%. For the same molecule, the IC50 in assay [1] (setting [6]) was 4 µM; in assay [2], 3.2 µM.
Take `N#Cc1cccc([C@@H]2CCCN(CC3CC3)C2)c1` [Compound S-38, S-3-(3-Cyanophenyl-N-cyclopropylmethyl)piperidine]: the response vs control in vivo at 100 µmol/kg in assay [4] (sc, read-out: DOPAC limbic) was 221 ± 8%. Further, the half-maximal inhibitory concentration (IC50) in assay [2] was 7.9 µM.
Take `CCCN1CCC[C@@H](c2cccc(OC)c2)C1` [S-i, S-3-(3-Methoxyphenyl-N-n-propyl)piperidine]: the IC50 was found to be 21 µM in assay [1] (setting [6]) and 4.5 µM in assay [2].
The corresponding values for `CCCN1CCC[C@@H](c2cccc(C(N)=O)c2)C1` [S-(-)-29, S-(-)-3-(3-Carbamoylphenyl-N-n-propyl)piperidine] are 75 µM and 6.3 µM.
